Results reported in patent US9834549B2, “3,3-disubstituted-(8-aza-bicyclo[3.2.1]OCT-8-yl)-[5-(1H-pyrazol-4-yl)-thiophen-3-yl]-methanones as inhibitors of 11 (β)-HSD1” (The University Of Edinburgh, priority 2010, dated 2017).

Legend:
[1] = target: T1, human 11β-HSD2 (Homo sapiens, UniProt P80365); experiment: Cellular in vitro 11β-HSD2 enzyme inhibition assay (CHO cells); assay type: cell-based; settings: CHO cells transfected with human 11β-HSD2
T1 construct: CHO cells stably transfected with the full-length gene coding for human 11β-HSD2 were used; expressed in transfected cells; host or cells: CHO (stably transfected)
T1 sequence (P80365 1-405): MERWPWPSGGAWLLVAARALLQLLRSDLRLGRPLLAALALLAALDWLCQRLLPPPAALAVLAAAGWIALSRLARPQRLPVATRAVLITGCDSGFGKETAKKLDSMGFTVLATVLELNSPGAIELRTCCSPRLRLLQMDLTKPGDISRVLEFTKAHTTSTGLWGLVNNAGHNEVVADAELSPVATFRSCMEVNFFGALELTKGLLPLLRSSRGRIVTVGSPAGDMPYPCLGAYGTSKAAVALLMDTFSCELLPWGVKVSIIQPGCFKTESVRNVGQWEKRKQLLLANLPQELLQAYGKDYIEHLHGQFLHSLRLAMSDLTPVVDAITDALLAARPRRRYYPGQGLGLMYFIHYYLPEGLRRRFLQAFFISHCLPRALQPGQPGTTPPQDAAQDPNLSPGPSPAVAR
Procedure: For measurement of inhibition of 11β-HSD2, CHO cells stably transfected with the full-length gene coding for human 11β-HSD2 were used. Assays were carried out in 96-well microplates containing 1×10^5 cells/well. Controls and compounds were plated as above, so that the final DMSO concentration in each well was 1%. To initiate the assay, 90 μL of a solution of HAMS F-12 medium containing 1% glutamine, 1% penicillin and streptomycin, and 22 nM tritiated cortisol was added to each well of the assay plate. The plate was then incubated in 5% CO2, 95% O2 at 37° C. for 16 hours.
The assay solutions were transferred to glass tubes and […] added to each tube. Each tube was vortexed thoroughly and the upper layer containing the tritiated steroid transferred to a fresh glass tube. The solvent was evaporated by placing the tubes in a heating block at 65° C. under a stream of nitrogen gas. 20 μL ethanol was added to each of the dried samples and vortexed briefly. Each sample was applied to a silica TLC plate and the plate dried. The plate was placed vertically in a glass tank containing 92% chloroform: 8% ethanol and the solvent allowed to rise up the plate. The plate was dried, placed in an imaging cassette, and overlayed with a tritium imaging plate for 1-2 days. The amount of enzyme inhibition in each sample was determined by measuring the intensity of the substrate and product spots using a phospho-imager. IC50 values for inhibitors were determined as described above for 11β-HSD1.

[2] = Oral exposure and tissue distribution in rats; assay type: in vivo, male Sprague Dawley rats; settings: rat, oral 10 mg/kg; for Cmax: male, Sprague Dawley, plasma, read-out: Plasma Cmax (maximum plasma concentration)
Procedure: The circulating plasma levels and tissue distribution of certain compounds were determined following oral administration of compound (10 mg/kg) to male Sprague Dawley rats. Rats (n=3 per group) were culled at 1, 4 and 6 hours post dosing and trunk blood and tissues (liver, adipose and brain) excised. Blood samples at 30 minutes and 2 hours post dosing were taken by tail nick from the 4 hour and 6 hour rats respectively.
Compound was triple extracted from plasma (prepared from blood by a high speed centrifugation step) spiked with 1 μg of a standard compound using ethyl acetate. Extracts were dried under nitrogen and re-suspended in 60% methanol/40% ammonium acetate (5 mM).
A known weight of tissue was homogenized in 3 volumes Krebs buffer. Compound was triple extracted with ethyl acetate from the supernatant of a low speed spin spiked with 1 μg of a standard compound. Extracts were dried under nitrogen and re-suspended in 60% methanol/40% ammonium acetate (5 mM).
Samples from plasma and tissue were analyzed by TSQ Quantum Discovery Tandem Mass Spectrometer and Surveyor Liquid Chromatogram (Thermo, Hemel-Hempstead, UK). 10 μL of each sample was injected in a mobile phase consisting of 60%:40% methanol:5 mM ammonium acetate at a flow rate of 0.5 mL/minute. The column used was a BDS hypersil, C18, 50×2.1 mm with a 5 μm particle size.
Each compound was tuned with a spray voltage of 3000 V and a capillary temperature of 300° C. and values for tube lens, CID and product ions were determined.
The peak area for each compound and for the internal standard was determined and the concentration of compound per gram of tissue or mL of plasma was calculated by comparison of the peak area ratio to a standard curve.

SMILES	IC50 [1] [µM]	Cmax [2] [ng/mL]	Liver Cmax (maximum liver concentration) [2]
O=C(c1csc(-c2cn[nH]c2)c1)N1C2CCC1CC(O)(c1ncccn1)C2 (stereo not drawn) [XX-20, (3-Hydroxy-3-pyrimidin-2-yl-8-aza-bicyclo[3.2.1]oct-8-yl)-[5-(1H-pyrazol-4-yl)-thiophen-3-yl]-methanone]	> 10	> 1000	+++ (>5001 +++)
O=C(c1csc(-c2cn[nH]c2)c1)N1C2CCC1CC(O)(c1nccs1)C2 (stereo not drawn) [XX-29]	> 10	501 to 1000	++ (3001-5000 ++)
